Experimental data from patent publication US12497405B2, “Bicyclic heterocycle compounds methods of use thereof for the treatment of herpes viruses” (Merck Sharp & Dohme LLC, priority 2019, dated 2025).
pEC50, pIC50: −log10 of the molar value. Read-outs that look alike come from different tables or passages of the source.

Key:
[1] = tested on: HSV1; assay: Viral qPCR assay, HSV1; type: cell-based; settings: infected cells, viral genome copies by qPCR normalized to PPIA, read-out: HSV1 Cell EC50
Procedure: (§1) MRC5 cells, Vero cells, and MeWo cells were obtained from ATCC, and were maintained at 37° C./5% CO2/90% relative humidity in Minimal Essential Medium with 10% fetal bovine serum, […] L-glutamine, 100 units/ml penicillin and 100 ug/ml streptomycin. Assay plates were prepared by dispensing compounds dissolved in DMSO into wells of 384 well collagen-coated plates using an ECHO acoustic dispenser. Each test compound was tested in a 10-point, serial 3-fold dilution. Controls included uninfected cells and infected cells treated only with DMSO. Assays were initiated by mixing selected cells, in suspension, with virus, and dispensing 50 μl/well infected cells to pre-plated compounds. Plates were incubated at 37° C./5% CO2/90% relative humidity for ˜72 hrs to permit genomic replication, and infected cells were lysed by the addition of an equal volume of lysis buffer (10 mM Tris-HCl, pH8, 50 mM KCl, 2 mM MgCl2, 0.45% NP-40, 0.45% Tween-20, and 100 µg/ml proteinase K). An aliquot of the lysate was then transferred to a 384-well PCR plate and incubated at 56° C. for 1 hour, and then at 95° C. for 10 minutes. Levels of the selected viral gene and of the cellular control, PPIA, were measured in separate 10 μl qPCR assays using TaqMan® Gene Expression Master Mix (Applied Biosystems), and an 7900HT Fast Real-Time PCR System with 384-Well Block Module. 7-point, serial 10-fold dilutions of a plasmid standard were run on each plate to generate a standard curve, and genome copies numbers were calculated by plotting experimental Ct onto linear regression of the standard curve. Viral genome copy numbers were normalized by cellular control copy number, and compound effects were normalized to the window defined by the controls. Calculated % effects were fit using a 4-parameter algorithm, and EC50 was reported.

[2] = target: varicella zoster virus DNA polymerase (Varicella-zoster virus (strain Dumas) (HHV-3) (Human herpesvirus 3), UniProt P09252); assay: VZV polymerase assay (AlphaLISA); type: biochemical; settings: VZV polymerase 0.4 nM, 30 min pre-incubation, 60 minute at 37° C.
Procedure: (§2) Human cytomegalovirus and varicella zoster virus DNA polymerases were expressed via baculovirus vector in SF21 cells and purified. Heterodimeric nucleic acid substrate used in the herpesvirus polymerase reactions were generated by annealing a 59-mer template to a 17-mer digoxigenin-labeled primer. Polymerase (HCMV final concentration of 0.2 nM; VZV final concentration of 0.4 nM) was combined with an inhibitor compound or DMSO in assay buffer (10 mM HEPES, pH 7.5, 25 mM KCl, 25 mM NaCl, 5 mM MgCl2, 5% glycerol, 0.67 mg/ml bovine serum albumin, and 1 mM tris(2-carboxyethyl)phosphine)), and this mixture was pre-incubated for 30 minutes at room temperature in 384-well microtiter plates. The polymerization reaction was initiated by the addition of template/primer substrate (final concentration: 1.6 nM), and dNTPs (final concentration: 24 nM dCTP, 24 nMdGTP, 16 nM dATP, 16 nM dTTP, and 0.8 nM biotin-dUTP). After a 60 minute incubation period at 37° C., the reactions were terminated using quench buffer (25 mM HEPES pH 7.5, 100 mM NaCl, 0.25% Tween-20, 12 mM EDTA, and 1 mg/ml bovine serum albumin). Incorporation of biotinylated UTP was detected with 2.5-5 μg/mL anti-DIG AlphaLISA acceptor beads and 5-10 μg/mL streptavidin AlphaLISA donor beads (PerkinElmer). Compound effects were normalized to the window defined by the controls (DMSO only and pre-quenched wells), and were fit using a 4-parameter algorithm to report an IC50.

[3] = tested on: CMV; assay: Viral qPCR assay, CMV; type: cell-based; settings: infected cells, viral genome copies by qPCR normalized to PPIA, read-out: CMV Cell EC50
Procedure: as §1

[4] = tested on: HSV2; assay: Viral qPCR assay, HSV2; type: cell-based; settings: infected cells, viral genome copies by qPCR normalized to PPIA, read-out: HSV2 Cell EC50
Procedure: as §1

[5] = target: Human cytomegalovirus DNA polymerase (Human cytomegalovirus (strain AD169) (HHV-5) (Human herpesvirus 5), UniProt P08546); assay: CMV polymerase assay (AlphaLISA); type: biochemical; settings: HCMV polymerase 0.2 nM, 30 min pre-incubation, 60 minute at 37° C.
Procedure: as §2

Compound | pEC50 ([1]; ~72 hrs) | pIC50 [2] | pEC50 ([3]; ~72 hrs) | pEC50 ([4]; ~72 hrs) | pIC50 [5] | pEC50 ([1]; Human alphaherpesvirus 1, 72 h) | pEC50 ([3]; Human betaherpesvirus 5, 72 h) | pEC50 ([4]; Human alphaherpesvirus 2, 72 h)
O=C1OC[C@@H]2C[C@@H](Oc3cc4c(=O)n(Cc5ccc(Cl)cc5)ccc4cn3)CCN12 [Example 2] | 5.77 | 7.36 | 6.06 | 5.98 | 7.31 | – | – | –
Cc1nc2cc(-c3cn4c(n3)CN(C)CC4)c(O[C@H]3CCN4C(=O)OC[C@@H]4C3)cc2c(=O)n1Cc1ccc(Cl)cc1 [Example 79] | – | 8.26 | – | – | 8.31 | 6.95 | 6.83 | 6.91
Cc1nc2cc(-c3cnn(C4CCN(C)CC4)c3)c(O[C@H]3CCN4C(=O)OC[C@@H]4C3)cc2c(=O)n1Cc1ccc(C#N)cc1 [Example 71] | – | 7.89 | – | – | 8.43 | 6.63 | 6.71 | 6.77
Cc1nc2cc(C3CC(O)C3)c(O[C@H]3CCN4C(=O)OC[C@@H]4C3)cc2c(=O)n1Cc1ccc(C#N)cc1 (stereo partly drawn) [Example 72] | – | 8.33 | – | – | 8.12 | 6.74 | 6.71 | 6.39
CCc1nc2cc(-c3cnc(OC)nc3)c(O[C@H]3CCN4C(=O)OC[C@@H]4C3)cc2c(=O)n1Cc1ccc(Cl)cc1 [Example 78] | – | 7.70 | – | – | 7.82 | 6.39 | 6.75 | 6.65
Cc1nc2cc(C3CC(N)C3)c(O[C@H]3CCN4C(=O)OC[C@@H]4C3)cc2c(=O)n1Cc1ccc(C#N)cc1 (single isomer, unassigned) [Example 83] | – | 7.70 | – | – | 7.72 | 5.17 | 5.34 | 4.68
Cc1nc2ncc(O[C@H]3CCN4C(=O)OC[C@@H]4C3)cc2c(=O)n1Cc1ccc(Cl)cc1 [Example 69] | – | 7.54 | – | – | 7.46 | 6.06 | 6.51 | 5.88
Cc1nc2cc(-c3cn(C(F)F)nn3)c(O[C@H]3CCN4C(=O)OC[C@@H]4C3)cc2c(=O)n1Cc1ccc(Cl)cc1 [Example 12] | 7.14 | 9.33 | 6.95 | 7.21 | 9.33 | – | – | –
COc1nc2ccc(O[C@H]3CCN4C(=O)OC[C@@H]4C3)cc2c(=O)n1Cc1ccc(Cl)cc1 [Example 58] | – | 7.33 | – | – | 7.64 | 6.00 | 6.76 | 5.94
O=C1OC[C@@H]2C[C@@H](Oc3cnc4ncn(Cc5ccc(Cl)cc5)c(=O)c4c3)CCN12 [Example 28] | – | 7.22 | – | – | 7.32 | 5.90 | 6.30 | 6.05
Cc1nc2cc(C3CC(C)(O)C3)c(O[C@H]3CCN4C(=O)OC[C@@H]4C3)cc2c(=O)n1Cc1ccc(C#N)cc1 (stereo partly drawn) [Example 74] | – | 8.19 | – | – | 8.19 | 6.35 | 7.26 | 6.36
Cc1nc2cc(-c3ccn(C(F)F)n3)c(O[C@H]3CCN4C(=O)OC[C@@H]4C3)cc2c(=O)n1Cc1ccc(C#N)cc1 [Example 11] | 7.29 | 8.60 | 7.27 | 7.46 | 9.26 | – | – | –
Cc1nc2cc(-c3cnn(C)c3)c(O[C@H]3CCN4C(=O)OC[C@@H]4C3)cc2c(=O)n1Cc1ccc(Cl)cc1 [Example 52] | – | 9.36 | – | – | 9.52 | 7.41 | 7.66 | 7.72
O=C1OC[C@@H]2C[C@@H](Oc3cc4c(=O)n(Cc5ccc(Cl)cc5)ccc4nc3-c3cnco3)CCN12 [Example 38] | – | 9.48 | – | – | 8.96 | 7.32 | 7.62 | 7.55
Cc1nc2cc(C#N)c(O[C@H]3CCN4C(=O)OC[C@@H]4C3)cc2c(=O)n1Cc1ccc(Cl)cc1 [Example 56] | – | 8.19 | – | – | 8.55 | 6.91 | 7.19 | 6.96
Cc1nc2cc(-c3cn4c(n3)CN(C)CC4)c(O[C@H]3CCN4C(=O)OC[C@@H]4C3)cc2c(=O)n1Cc1ccc(C#N)cc1 [Example 87] | – | 9.10 | – | – | 9.36 | 6.50 | 6.70 | 6.56
Cc1nc2ccc(O[C@H]3CCN4C(=O)OC[C@@H]4C3)cc2c(=O)n1Cc1ccc(Cl)cc1 [Example 40] | – | 7.77 | – | – | 7.96 | 6.41 | 6.80 | 6.52
COc1cnc(-c2cc3nc(C)n(Cc4ccc(Cl)cc4)c(=O)c3cc2O[C@H]2CCN3C(=O)OC[C@@H]3C2)nc1 [Example 88] | – | 7.60 | – | – | 7.55 | 6.27 | 6.14 | 6.65
Cc1nc2cc(-c3cc4n(n3)CCNC4)c(O[C@H]3CCN4C(=O)OC[C@@H]4C3)cc2c(=O)n1Cc1ccc(Cl)cc1 [Example 84] | – | 9.36 | – | – | 9.36 | 6.95 | 6.75 | 6.99
CC(C)(O)Cc1cc(O[C@H]2CCN3C(=O)OC[C@@H]3C2)cc2c(=O)n(Cc3ccc(Cl)cc3)cnc12 [Example 48] | – | 7.43 | – | – | 7.38 | 6.15 | 6.56 | 6.19
O=C1OC[C@@H]2C[C@@H](Oc3cc4c(=O)n(Cc5ccc(Cl)cc5)cnc4nc3-c3cnco3)CCN12 [Example 7] | 6.93 | 8.04 | 6.98 | 7.05 | 8.34 | – | – | –
Cc1nc2cc(-c3cccnc3)c(O[C@H]3CCN4C(=O)OC[C@@H]4C3)cc2c(=O)n1Cc1ccc(Cl)cc1 [Example 54] | – | 7.55 | – | – | 7.64 | 6.62 | 7.09 | 6.76
O=C1OC[C@@H]2C[C@@H](Oc3cc(CO)c4ncn(Cc5ccc(Cl)cc5)c(=O)c4c3)CCN12 [Example 46] | – | 7.70 | – | – | 7.62 | 6.37 | 6.76 | 6.48
COc1ccc(-c2cc3nc(C)n(Cc4ccc(Cl)cc4)c(=O)c3cc2O[C@H]2CCN3C(=O)OC[C@@H]3C2)nn1 [Example 14] | 6.43 | 7.85 | 6.55 | 6.57 | 7.89 | – | – | –
Cc1nc2cc(C3CCC3O)c(O[C@H]3CCN4C(=O)OC[C@@H]4C3)cc2c(=O)n1Cc1ccc(C#N)cc1 (single isomer, unassigned) [Example 85] | – | 7.96 | – | – | 8.00 | 6.17 | 6.47 | 6.13
Cc1nc2cc(CC(C)(C)O)c(O[C@H]3CCN4C(=O)OC[C@@H]4C3)cc2c(=O)n1Cc1ccc(Cl)cc1 [Example 3] | 7.12 | 9.30 | 7.43 | 7.26 | 8.62 | – | – | –
Cc1nc2cc(-c3cnc(N4CCOCC4)nc3)c(O[C@H]3CCN4C(=O)OC[C@@H]4C3)cc2c(=O)n1Cc1ccc(Cl)cc1 [Example 97] | – | 7.82 | – | – | 7.85 | 6.79 | 6.70 | 7.02
